Patent publication US8815840B2, “Carbazole and carboline kinase inhibitors” (Bristol-Myers Squibb Company, priority 2008, dated 2014)

Target: JAK2 (Homo sapiens (Human), UniProt O60674)
Assay: JAK2 Tyrosine Kinase Assay
Type: biochemical
Details: ATP 30 μM; JAK2 1 nM; 60 min at room temperature
Description: JAK2 Tyrosine Kinase Assay
The assays were performed in V-bottom 384-well plates. […] The reaction was initiated by the combination of JAK2 with substrates and test compounds. The reaction was incubated at room temperature for 60 min. and terminated by adding 45 μl of 35 mM EDTA to each sample. The reaction mixture was analyzed on the Caliper LABCHIP® 3000 by electrophoretic separation of the fluorescent substrate and phosphorylated product. […] Compounds were dissolved at 10 mM in dimethylsulfoxide (DMSO) and evaluated at eleven concentrations, each in duplicate. IC50 values were derived by non-linear regression analysis

Sequence of JAK2 (O60674 whole entry): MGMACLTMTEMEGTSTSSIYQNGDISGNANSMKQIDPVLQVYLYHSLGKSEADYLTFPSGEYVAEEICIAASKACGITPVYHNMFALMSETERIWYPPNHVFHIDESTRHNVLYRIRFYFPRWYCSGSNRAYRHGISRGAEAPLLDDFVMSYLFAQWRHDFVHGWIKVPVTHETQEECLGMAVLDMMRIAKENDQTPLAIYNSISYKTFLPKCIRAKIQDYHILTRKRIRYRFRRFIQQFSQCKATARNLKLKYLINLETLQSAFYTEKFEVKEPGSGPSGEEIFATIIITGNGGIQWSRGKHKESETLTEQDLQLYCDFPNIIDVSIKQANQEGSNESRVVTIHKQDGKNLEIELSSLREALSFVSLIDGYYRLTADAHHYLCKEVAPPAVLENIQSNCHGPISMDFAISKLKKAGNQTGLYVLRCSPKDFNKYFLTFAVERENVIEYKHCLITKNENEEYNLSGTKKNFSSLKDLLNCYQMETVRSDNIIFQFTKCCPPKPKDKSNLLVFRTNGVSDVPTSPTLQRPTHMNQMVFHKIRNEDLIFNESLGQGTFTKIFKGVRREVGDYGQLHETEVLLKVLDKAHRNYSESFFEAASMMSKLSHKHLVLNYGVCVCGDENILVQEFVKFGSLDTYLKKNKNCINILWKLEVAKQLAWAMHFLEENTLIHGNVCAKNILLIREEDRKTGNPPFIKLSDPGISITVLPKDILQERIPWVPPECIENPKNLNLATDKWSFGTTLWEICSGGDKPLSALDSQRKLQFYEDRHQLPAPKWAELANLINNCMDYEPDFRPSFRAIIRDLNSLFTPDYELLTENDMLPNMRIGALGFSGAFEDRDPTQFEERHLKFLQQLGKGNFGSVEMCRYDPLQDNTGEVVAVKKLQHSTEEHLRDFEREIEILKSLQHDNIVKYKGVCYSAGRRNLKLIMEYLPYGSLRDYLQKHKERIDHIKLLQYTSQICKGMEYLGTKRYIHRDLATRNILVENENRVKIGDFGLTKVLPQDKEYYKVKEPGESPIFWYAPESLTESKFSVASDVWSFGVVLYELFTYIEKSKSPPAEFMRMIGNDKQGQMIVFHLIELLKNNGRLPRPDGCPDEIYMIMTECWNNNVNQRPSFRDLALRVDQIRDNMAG

Point of comparison: `NC(=O)c1cc(-c2ccc(CO)nc2)nc2c1[nH]c1cc(N3CCOCC3)ccc12` [Example 500, 2-(6-(hydroxymethyl)pyridin-3-yl)-7-morpholino-5H-pyrido[3,2-b]indole-4-carboxamide], IC50 6 nM. Against it:
- NC(=O)c1cc(-c2ncccn2)cc2c1[nH]c1cc(C(=O)N3CCOCC3)ccc12 [Example 430, 7-(Morpholine-4-carbonyl)-3-(pyrimidin-2-yl)-9H-carbazole-1-carboxamide] — 6-fold lower, 1 nM
- Cn1ccc2cc(-c3cc(C(N)=O)c4[nH]c5cc(C(=O)N6CCOCC6)ccc5c4n3)ccc21 [Example 448, 2-(1-methyl-1H-indol-5-yl)-7-(morpholine-4-carbonyl)-5H-pyrido[3,2-b]indole-4-carboxamide] — 6-fold lower, 1 nM
- Cn1ncc2ccc(-c3cc(C(N)=O)c4[nH]c5cc(C(=O)N6CCOCC6)ccc5c4n3)cc21 [Example 454, 2-(1-methyl-1H-indazol-6-yl)-7-(morpholine-4-carbonyl)-5H-pyrido[3,2-b]indole-4-carboxamide] — within 1.5-fold, 7 nM
- NC(=O)c1cc(-c2ccc3scnc3c2)nc2c1[nH]c1cc(C(=O)N3CCOCC3)ccc12 [Example 456, 2-(benzo[d]thiazol-5-yl)-7-(morpholine-4-carbonyl)-5H-pyrido[3,2-b]indole-4-carboxamide] — 6-fold lower, 1 nM
- Cc1noc(C)c1-c1cc(C(N)=O)c2[nH]c3cc(C(=O)N4CCOCC4)ccc3c2n1 [Example 461, 2-(3,5-dimethylisoxazol-4-yl)-7-(morpholine-4-carbonyl)-5H-pyrido[3,2-b]indole-4-carboxamide] — 24-fold higher, 146 nM
- NC(=O)c1cc(-c2cnoc2)nc2c1[nH]c1cc(C(=O)N3CCOCC3)ccc12 [Example 462, 2-(isoxazol-4-yl)-7-(morpholine-4-carbonyl)-5H-pyrido[3,2-b]indole-4-carboxamide] — 19-fold higher, 112 nM
- Cn1nc(C(F)(F)F)cc1-c1cc(C(N)=O)c2[nH]c3cc(C(=O)N4CCOCC4)ccc3c2n1 [Example 464, 2-(1-methyl-3-(trifluoromethyl)-1H-pyrazol-5-yl)-7-(morpholine-4-carbonyl)-5H-pyrido[3,2-b]indole-4-carboxamide] — 52-fold higher, 314 nM
- CN1CCN(c2ccc(-c3cc(C(N)=O)c4[nH]c5cc(C(=O)N6CCOCC6)ccc5c4n3)cc2)CC1 [Example 468, 2-(4-(4-methylpiperazin-1-yl)phenyl)-7-(morpholine-4-carbonyl)-5H-pyrido[3,2-b]indole-4-carboxamide] — the same, 6 nM
- NC(=O)c1nc(-c2ccccc2)cc2c1[nH]c1cc(C(=O)N3CCOCC3)ccc12 [Example 469, 7-(Morpholine-4-carbonyl)-3-phenyl-9H-pyrido[3,4-b]indole-1-carboxamide] — 1.8-fold higher, 11 nM
- Cc1cccc(-c2cc(C(N)=O)c3[nH]c4cc(N5CCN(Cc6ccccc6)CC5)ccc4c3c2)c1 [Example 479, 7-(4-Benzylpiperazin-1-yl)-3-m-tolyl-9H-carbazole-1-carboxamide] — 20-fold higher, 123 nM
- NC(=O)c1cc(-c2ccc(CN3CCOCC3)c(Cl)c2)cc2c1[nH]c1cc(-c3cccnc3)ccc12 [Example 481, 3-(3-Chloro-4-(morpholinomethyl)phenyl)-7-(pyridin-3-yl)-9H-carbazole-1-carboxamide] — 22-fold higher, 133 nM
- NC(=O)c1cc(-c2ccc(CN3CCOCC3)c(Cl)c2)cc2c1[nH]c1cc(-c3ccc(N4CCOCC4)nc3)ccc12 [Example 482, 3-(3-Chloro-4-(morpholinomethyl)phenyl)-7-(6-morpholinopyridin-3-yl)-9H-carbazole-1-carboxamide] — 150-fold higher, 917 nM
- Cc1cc(-c2cc(C(N)=O)c3[nH]c4cc(C5CCN(C(=O)OC(C)(C)C)CC5)ccc4c3c2)ccc1CN1CCOCC1 [Example 486, tert-Butyl 4-(8-carbamoyl-6-(3-methyl-4-(morpholinomethyl)phenyl)-9H-carbazol-2-yl)piperidine-1-carboxylate] — 140-fold higher, 818 nM
- NC(=O)c1cc(-c2ccc(C3CC3)nc2)nc2c1[nH]c1cc(N3CCOCC3)ccc12 [Example 499, 2-(6-cyclopropylpyridin-3-yl)-7-morpholino-5H-pyrido[3,2-b]indole-4-carboxamide] — 6-fold lower, 1 nM
- Cc1cc(-c2cc(C(N)=O)c3[nH]c4cc(N5CCOCC5)ccc4c3n2)ccc1Cl [Example 501, 2-(4-chloro-3-methylphenyl)-7-morpholino-5H-pyrido[3,2-b]indole-4-carboxamide] — within 1.5-fold, 7 nM
- CN(C)c1ccc(-c2cc(C(N)=O)c3[nH]c4cc(N5CCOCC5)ccc4c3n2)cn1 [Example 503, 2-(6-(dimethylamino)pyridin-3-yl)-7-morpholino-5H-pyrido[3,2-b]indole-4-carboxamide] — 6-fold lower, 1 nM
- NC(=O)c1cc(-c2ccc(N3CCOCC3)nc2)nc2c1[nH]c1cc(N3CCOCC3)ccc12 [Example 504, 7-morpholino-2-(6-morpholinopyridin-3-yl)-5H-pyrido[3,2-b]indole-4-carboxamide] — 6-fold lower, 1 nM
- NC(=O)c1cc(-c2ccc(F)c(Cl)c2)cc2c1[nH]c1cc(C(=O)N3CCOCC3)ccc12 [Example 545, 3-(3-Chloro-4-fluorophenyl)-7-(morpholine-4-carbonyl)-9H-carbazole-1-carboxamide] — 150-fold higher, 885 nM
- CN(C)C(=O)c1ccc(-c2cc(C(N)=O)c3[nH]c4cc(C(=O)N5CCOCC5)ccc4c3c2)cc1 [Example 558, 3-(4-(dimethylcarbamoyl)phenyl)-7-(4-morpholinylcarbonyl)-9H-carbazole-1-carboxamide] — 48-fold higher, 286 nM
- N#Cc1cc(-c2cc(C(N)=O)c3[nH]c4cc(C(=O)N5CCOCC5)ccc4c3c2)ccc1F [Example 563, 3-(3-cyano-4-fluorophenyl)-7-(4-morpholinylcarbonyl)-9H-carbazole-1-carboxamide] — 170-fold higher, 1010 nM
- NC(=O)c1cc(-c2cnc(N3CCOCC3)nc2)cc2c1[nH]c1cc(C(=O)N3CCOCC3)ccc12 [Example 579, 7-(4-morpholinylcarbonyl)-3-(2-(4-morpholinyl)-5-pyrimidinyl)-9H-carbazole-1-carboxamide] — 18-fold higher, 108 nM
